Test results reported in US20190375708A1 (VenatoRx Pharmaceuticals, Inc., priority 2018, published 2019).
Like-named read-outs stand apart in the source and are kept apart here.

How the values were obtained:
[1] = system: HBV replication in HepAD38 cells; assay: Anti-HBV replication assay in HepAD38 cells (QPCR of extracellular HBV DNA); type: cell-based, HBV (genotype D, serotype ayw); conditions: Hepatitis B virus
Protocol: The anti-HBV activity of the Capsid Assembly Modulators (CAMs) was evaluated in a cell based assay utilizing the human hepatoma cell line HepAD38 (Ladner, S K., et al., 1998). HepAD38 cells were derived from the parental line, HepG2, that were stably transfected with a construct containing an HBV genome (genotype D, serotype ayw) under the control of a tetracycline repressible CMV promoter. Upon removal of tetracycline, viral pre-genomic RNA (pgRNA) and mRNAs are expressed and infectious viral particles are assembled and secreted into the culture medium providing a reliable, robust system to measure multiple steps of the HBV life cycle. Disruption of capsid formation results in reduced levels of DNA-containing virus particles that are released into the culture supernatant. To quantify the effect of CAMs on HBV replication, we developed a sensitive QPCR-based assay that measures extracellular HBV DNA levels upon treatment of HepAD38 cells with various concentrations of test compounds.
HepAD38 cells were maintained in DMEM/F12 medium containing 10% FBS, 400 μg/mL G418 and 0.3 μg/mL tetracycline (tet+ media) to maintain repression of HBV replication. To evaluate each compound, HepAD38 cells were seeded into 24-well collagen coated culture plates (Corning BioCoat) at a density of 200,000 cells per well in 1 mL of medium without tetracycline (tet-media) and allowed to adhere overnight at 37° C., 5% CO2 in a humidified incubator. The following day, media was refreshed and a dose range of each compound was prepared by performing 1 log10 serial dilutions in 100% DMSO at 200× the desired assay concentration. Dilutions were then added to the cells resulting in a final dose range of 1 μM to 10 μM and the plates were returned to the incubator. Following 7 days of incubation, culture supernatants were harvested and HBV DNA levels were evaluated by QPCR and compared to the vehicle treated control wells (i.e. DMSO alone).
To quantify HBV DNA levels, cell culture supernatants were diluted 1:10 in sterile, nuclease-free water (Gibco). The diluted supernatants were subsequently added to a PCR master mix containing 1× Roche Light Cycler Master Mix, 0.5 μM forward primer, 0.5 μM reverse primer (Fwd: 5′-[…] (SEQ ID NO 1); Rev: 5′-[…] (SEQ ID NO 2)), 0.2 μM Roche Universal Probe Library Probe 25. The volume was brought to 20 μL with nuclease-free water and amplification of the HBV target sequence was performed using a Roche LightCycler 480 QPCR instrument. PCR extended out to 45 cycles with each cycle consisting of a denaturation step at 95° C. for 10 sec., followed by an annealing step at 60° C. for 10 sec. and a brief extension step at 72° C. for 1 sec.
Extracellular HBV DNA levels, expressed in copies/mL, were determined by comparison to a standard curve (10^2-10^9 copies/mL) using the Roche LightCycler analysis software. These values were subsequently converted to percent inhibition of HBV replication by dividing the HBV DNA levels in the experimental samples with those obtained from the vehicle control (˜1-2×10^5 copies/mL). Potency, expressed as an EC50 (the effective concentration required to inhibit 50% of HBV replication), was calculated from the dose-response curve using a 4-parameter non-linear regression analysis (GraphPad Prism). The nucleoside analog inhibitor entecavir was used as a positive control to validate each assay run. The EC50 value of entecavir in the HepAD38 assay was 0.5 nM, as previously reported in the literature.

[2] = In vitro cytotoxicity assay (MTT cell viability) in HepG2 cells; type: cell-based, human; conditions: human
Protocol: To evaluate antiviral selectivity, the cytotoxic activity of each compound was determined using a standard cell viability assay performed on the parental HepG2 cell line. Cell viability was determined by measuring the conversion of 3-(4,5-dimethylthiazol-2-yl)-2,5-diphenyltetrazolium bromide (MTT) to the insoluble formazan salt crystal that occurs in live cells. Briefly, HepG2 cells were seeded in 96-well plates at a density of 20,000 cells per well in EMEM+10% FBS (complete growth medium) and allowed to adhere overnight in a 37° C., 5% CO2 humidified incubator. The next day, test agents were prepared by performing 8 half-log10 serial dilutions in 100% DMSO at 200× the final desired concentration in the assay. Compounds were tested over a range of concentrations from 30 μM to 1.0 nM in the assay. HepG2 cells were incubated in the presence of various concentrations of CAMs for 7 days in a 37° C., 5% CO2 humidified incubator. At the completion of the 7-day incubation period, MTT reagent was added to each well and the mixture was incubated for an additional 3-4 hours. At the completion of the incubation period, all wells were aspirated to remove the culture medium. The formazan crystals were solubilized from the cell monolayers with 100% DMSO. Plates were briefly mixed on an orbital shaker and absorbance was measured at 492 nm using a Perkin-Elmer EnVision multi-label plate reader. All absorbance values were converted to a percentage of the signal obtained from the vehicle treated controls. Absorbance values at 492 nm are directly proportional to the number of viable cells present in the sample. A CC50 value (cytotoxic concentration that results in loss of 50% cell viability) was calculated from the dose-response curve by 4-parameter, non-linear regression analysis using the GraphPad Prism software. The positive control compound, staurosporine, reduced the viability of HepG2 cells in a dose-dependent manner (CC50=100 nM).

[3] = 168 h, 7 days incubation, extracellular HBV DNA by QPCR, read-out: Anti-HBV EC50

| Compound | EC50 [1, 3] | CC50 at 7 days [2] | EC50 ([1]; positive control, read-out: EC50 in the HepAD38 assay) | CC50 at 7 days ([2]; positive control, HepG2 cells, 7 days, MTT, read-out: CC50 (loss of 50% cell viability)) |
| --- | --- | --- | --- | --- |
| Cc1noc([C@@H](C)NC(=O)C(=O)c2c(Cl)c(C(=O)Nc3ccc(F)c(Cl)c3)c3n2CCCC3)n1 [Example 524, (R)-2-chloro-N-(3-chloro-4-fluorophenyl)-3-(2-((1-(3-methyl-1,2,4-oxadiazol-5-yl)ethyl)amino)-2-oxoacetyl)-5,6,7,8-tetrahydroindolizine-1-carboxamide] | 50 to 499 nM | 5000 to 30000 nM | – | – |
| C=C1[C@H](CO)[C@@H](O)C[C@@H]1n1cnc2c(=O)[nH]c(N)nc21 [entecavir, reference compound] | – | – | 0.5 nM | – |
| Cc1cc(NC(=O)c2c(C)c(C(=O)C(=O)NC3CCN(c4cccnc4)CC3)n(C)c2C)ccc1F [Example 663, N-(4-fluoro-3-methylphenyl)-1,2,4-trimethyl-5-(2-oxo-2-((1-(pyridin-3-yl)piperidin-4-yl)amino)acetyl)-1H-pyrrole-3-carboxamide] | < 50 nM | > 30000 nM | – | – |
| CC(C)(C)NC(=O)C(=O)c1cc(C(=O)Nc2cc(F)cc(Cl)c2)c2n1CCCC2 [Example 395, 3-(2-(tert-butylamino)-2-oxoacetyl)-N-(3-chloro-5-fluorophenyl)-5,6,7,8-tetrahydroindolizine-1-carboxamide] | > 1000 nM | 500 to 4990 nM | – | – |
| Cc1cc(NC(=O)c2c(C)c(C(=O)C(=O)N[C@@H](CO)C(C)(C)C)n(C)c2C)ccc1F [Example 78, (R)—N-(4-fluoro-3-methylphenyl)-5-(2-((1-hydroxy-3,3-dimethylbutan-2-yl)amino)-2-oxoacetyl)-1,2,4-trimethyl-1H-pyrrole-3-carboxamide] | < 50 nM | > 30000 nM | – | – |
| CC(C)(CO)NC(=O)C(=O)c1cc(C(=O)Nc2ccc(F)c(Cl)c2)c2n1CCCC2 [Example 427, N-(3-chloro-4-fluorophenyl)-3-(2-((1-hydroxy-2-methylpropan-2-yl)amino)-2-oxoacetyl)-5,6,7,8-tetrahydroindolizine-1-carboxamide] | 50 to 499 nM | > 30000 nM | – | – |
| Cc1cc(NC(=O)c2c(C)c(C(=O)C(=O)NC3(C)CC(F)(F)C3)n(C)c2C)ccc1F [Example 238, 5-(2-((3,3-difluoro-1-methylcyclobutyl)amino)-2-oxoacetyl)-N-(4-fluoro-3-methylphenyl)-1,2,4-trimethyl-1H-pyrrole-3-carboxamide] | < 50 nM | > 30000 nM | – | – |
| Cc1c(C(=O)Nc2ccc(F)c(F)c2)c2n(c1C(=O)C(=O)NCC(C)(C)O)CCCC2 [Example 462, N-(3,4-difluorophenyl)-3-(2-((2-hydroxy-2-methylpropyl)amino)-2-oxoacetyl)-2-methyl-5,6,7,8-tetrahydroindolizine--1 carboxamide] | 50 to 499 nM | > 30000 nM | – | – |
| Cc1cc(NC(=O)c2c(C)c(C(=O)C(=O)NC(C)(C)CO)n(C)c2C)cnc1F [Example 161, N-(6-fluoro-5-methylpyridin-3-yl)-5-(2-((1-hydroxy-2-methylpropan-2-yl)amino)-2-oxoacetyl)-1,2,4-trimethyl-1H-pyrrole-3-carboxamide] | < 50 nM | > 30000 nM | – | – |
| Cc1cc(NC(=O)c2c(C)c(C(=O)C(=O)N[C@H](C(=O)O)C(C)C)n(C)c2C)ccc1F [Example 100, (2-(4-((4-fluoro-3-methylphenyl)carbamoyl)-1,3,5-trimethyl-1H-pyrrol-2-yl)-2-oxoacetyl)-L-valine] | > 1000 nM | 5000 to 30000 nM | – | – |
| Cc1cc(NC(=O)c2c(Cl)c(C(=O)C(=O)NC3(CO)CC(F)(F)C3)n3c2CCC3)ccc1F [Example 548, 6-chloro-5-(2-((3,3-difluoro-1-(hydroxymethyl)cyclobutyl)amino)-2-oxoacetyl)-N-(4-fluoro-3-methylphenyl)-2,3-dihydro-1H-pyrrolizine-7-carboxamide] | < 50 nM | 5000 to 30000 nM | – | – |
| Cc1cc(NC(=O)c2c(C)c(C(=O)C(=O)NCCN3CCOCC3)n(C)c2C)ccc1F [Example 270, N-(4-fluoro-3-methylphenyl)-1,2,4-trimethyl-5-(2-((2-morpholinoethyl)amino)-2-oxoacetyl)-1H-pyrrole-3-carboxamide] | < 50 nM | > 30000 nM | – | – |
| Cc1cc(NC(=O)c2c(C)c(C(=O)C(=O)N[C@H]3CCCN(S(C)(=O)=O)C3)n(C)c2C)ccc1F [Example 642, (S)-N-(4-fluoro-3-methylphenyl)-1,2,4-trimethyl-5-(2-((1-(methylsulfonyl)piperidin-3-yl)amino)-2-oxoacetyl)-1H-pyrrole-3-carboxamide] | < 50 nM | 5000 to 30000 nM | – | – |
| Cc1cc(NC(=O)c2cc(C(=O)C(=O)N[C@@H](C)C(F)(F)F)n3c2CCCC3)ccc1F [Example 407, (S)-N-(4-fluoro-3-methylphenyl)-3-(2-oxo-2-((1,1,1-trifluoropropan-2-yl)amino)acetyl)-5,6,7,78-tetrahydroindolizine-1-carboxamide] | 50 to 499 nM | > 30000 nM | – | – |
| Cc1cnc(C(C)(C)NC(=O)C(=O)c2c(C)c(C(=O)Nc3ccc(F)c(C)c3)c(C)n2C)s1 [Example 84, N-(4-fluoro-3-methylphenyl)-1,2,4-trimethyl-5-(2-((2-(5-methylthiazol-2-yl)propan-2-yl)amino)-2-oxoacetyl)-1H-pyrrole-3-carboxamide] | < 50 nM | > 30000 nM | – | – |
| Cc1cc(NC(=O)c2c(C)c(C(=O)C(=O)NC3(C(N)=O)CC3)n(C)c2C)ccc1F [Example 37, 5-(2-((1-carbamoylcyclopropyl)amino)-2-oxoacetyl)-N-(4-fluoro-3-methylphenyl)-1,2,4-trimethyl-1H-pyrrole-3-carboxamide] | < 50 nM | > 30000 nM | – | – |
| O=C(NC1(CO)CCC1)C(=O)c1c(Cl)c(C(=O)Nc2ccc(F)c(F)c2)c2n1CCOC2 [Example 584, 7-chloro-N-(3,4-difluorophenyl)-6-(2-((1-(hydroxymethyl)cyclobutyl)amino)-2-oxoacetyl)-3,4-dihydro-1H-pyrrolo[2,1-c][1,4]oxazine-8-carboxamide] | < 50 nM | 5000 to 30000 nM | – | – |
| Cc1c(C(=O)Nc2ccc(F)c(Cl)c2)c(C)n(C)c1C(=O)C(=O)Nc1ccc(F)cn1 [Example 310, N-(3-chloro-4-fluorophenyl)-5-(2-((5-fluoropyridin-2-yl)amino)-2-oxoacetyl)-1,2,4-trimethyl-1H-pyrrole-3-carboxamide] | < 50 nM | – | – | – |
| CN[C@@H]1C[C@H]2O[C@@](C)([C@@H]1OC)n1c3ccccc3c3c4c(c5c6ccccc6n2c5c31)C(=O)NC4 [staurosporine, reference compound] | – | – | – | 100 nM |
